For experiment [1], the target named is T1, FFA3 receptor conformation sensor (Homo sapiens, UniProt O14843).
T1 construct: mT2 insertion and truncation after G314; expressed in transfected cells
T1 sequence (O14843 1-314 limits assumed): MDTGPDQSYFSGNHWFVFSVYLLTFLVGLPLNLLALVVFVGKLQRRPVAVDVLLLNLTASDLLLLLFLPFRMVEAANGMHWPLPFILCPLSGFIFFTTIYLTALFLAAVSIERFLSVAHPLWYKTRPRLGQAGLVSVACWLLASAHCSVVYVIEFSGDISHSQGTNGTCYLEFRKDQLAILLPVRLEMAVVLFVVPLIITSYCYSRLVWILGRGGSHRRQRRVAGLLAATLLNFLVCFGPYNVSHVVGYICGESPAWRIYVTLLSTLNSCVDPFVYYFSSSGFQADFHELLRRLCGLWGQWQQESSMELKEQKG
The experiment is described as follows: FRET-based FFA3 receptor conformation sensor, single-cell measurements in HEK293 cells. The protocol:
(§1) The cells were washed once with external buffer and subsequently incubated 2 minutes for single-cell FRET measurements or 10 minutes for BRET measurements in 0.05% saponin (AppliChem, Darmstadt, Germany) dissolved in internal buffer. Afterward, the cells were washed five times for single-cell FRET measurements or three times for BRET measurements with internal buffer.
(§2) The coverslips loaded with stably transfected HEK293 cells containing either the FFA3 receptor, α2A-AR CAM, or ETB receptor conformation sensors were clamped in an Attofluor^TM cell chamber and were washed once with external buffer. Afterward, they were side by side either permeabilized or directly measured at room temperature by the use of an inverted microscope (Elipse Ti2, Nikon, Düsseldorf, Germany), equipped with a 100× oil immersion objective (Plan Apo λ 100 x/1.45 oil ∞/0.17 WD 0.13, Nikon, Düsseldorf, Germany) and dual excitation and dual emission imaging capabilities. […] The fluorescence emission of mT2 and the respective YFP variant was simultaneously collected by a second beamsplitter (488, Chroma, Bellows Falls, Vermont, U.S.A.) and two emission filters (mT2: 474/27, Chroma; YFP: 544/23, Chroma). […] For all single-cell FRET experiments, cells were prospectively selected based on a continuous plasma-membrane fluorescence rim and appropriate fluorescence distribution to ensure a PM-dominant receptor signal. […]

The target of experiment [2] is T2, α2A-AR conformation sensor CAM (Mus musculus, UniProt Q01338).
T2 sequence (Q01338 1-465): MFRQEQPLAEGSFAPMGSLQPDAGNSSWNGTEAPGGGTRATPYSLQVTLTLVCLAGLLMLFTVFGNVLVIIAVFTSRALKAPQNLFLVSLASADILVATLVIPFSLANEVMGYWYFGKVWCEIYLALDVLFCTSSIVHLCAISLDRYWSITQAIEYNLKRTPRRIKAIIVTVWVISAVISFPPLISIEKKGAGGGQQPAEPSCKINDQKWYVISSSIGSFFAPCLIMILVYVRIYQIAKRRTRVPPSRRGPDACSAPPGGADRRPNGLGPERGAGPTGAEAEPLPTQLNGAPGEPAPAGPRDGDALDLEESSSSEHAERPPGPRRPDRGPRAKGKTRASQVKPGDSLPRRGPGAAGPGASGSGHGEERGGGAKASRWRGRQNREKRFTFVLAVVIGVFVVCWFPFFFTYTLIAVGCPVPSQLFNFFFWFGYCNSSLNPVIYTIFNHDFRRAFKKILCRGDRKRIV
The experiment in a line: FRET-based α2A-AR CAM conformation sensor, single-cell measurements in HEK293 cells. The arrangement: species or system murine. The procedure:
as §1, §2

The target in the next experiment is T3, ETB receptor (Homo sapiens, UniProt P24530).
T3 construct: expressed in transfected cells; host or cells: HEK293T (transient)
T3 sequence (P24530 27-442): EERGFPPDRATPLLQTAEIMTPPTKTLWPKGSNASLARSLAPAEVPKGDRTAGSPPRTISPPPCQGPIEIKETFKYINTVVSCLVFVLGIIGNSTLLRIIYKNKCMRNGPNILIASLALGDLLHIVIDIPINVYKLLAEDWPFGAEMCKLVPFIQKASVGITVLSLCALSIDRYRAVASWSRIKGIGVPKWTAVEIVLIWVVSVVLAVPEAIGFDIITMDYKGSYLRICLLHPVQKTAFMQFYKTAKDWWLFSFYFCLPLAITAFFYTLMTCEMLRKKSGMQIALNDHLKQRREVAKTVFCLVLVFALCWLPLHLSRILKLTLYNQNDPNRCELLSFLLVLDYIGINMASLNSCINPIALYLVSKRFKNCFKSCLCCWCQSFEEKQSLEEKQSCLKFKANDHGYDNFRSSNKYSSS
The experiment in a line: BRET-based G protein activation, wildtype ETB receptor + Gαq biosensor in HEK293T cells. The experiment is classed as cell-based. The protocol: Two days before BRET measurements were performed, HEK293T cells were transiently transfected with 3 µg of cDNAs containing TP receptor, ETB receptor, DP2 receptor, or S1P3 receptor and 3 µg of cDNAs containing Gβ3-T2A-cpVenus-Gγ9-IRES-Gαq-NLuc or Gβ3-T2A-cpVenus-Gγ9-IRES-Gαo1-NLuc using linear 25 kDa PEI reagent (polyethylenimine, PolyScience Inc., Hirschberg an der Bergstraße, Germany). The ratio between DNA and PEI was 1:3, and 50 µl serum-free DMEM was added per 1 µg DNA. The same amount of serum-free DMEM was also added separately to the PEI solution. DNA-DMEM and PEI-DMEM mixtures were incubated for 5 minutes, followed by incubation of the final mixture for another 10 minutes. […]
Two days before the actual measurement, HEK293T cells were transiently transfected and seeded on microplates. […] The measurements were performed using a Spark 20M plate reader (Tecan) at 37°C. Initially, the cells were measured for the baseline emission ratio. After the baseline measurement, 20 µl of external or internal buffer containing differing concentrations of either U-46619, 4-Ala ET-1, PGD,2 or S1P or external or internal buffer alone were added to the cells and measured. […] The cells were measured from the top and the donor luminescence (NLuc) was recorded at 415 to 470 nm and the acceptor luminescence (cpVenus) at 520 to 590 nm. Data were recorded using SparkControl^TM software. […]
A general note: In BRET a luciferase serves as donor, and the signal depends on an acceptor being close.

Experiment [3] deals with EP4 receptor conformation sensor (Homo sapiens, UniProt P35408). The experiment in a line: FRET-based EP4 receptor conformation sensor stably expressed in HEK293 cells (intact, saponin-permeabilized, membrane fragments). The experiment is classed as cell-based. The note with it: for response of about 10 times EC50 normalized to saturating PGE2 concentration: 830 nM 11-deoxy PGE2, pipetting protocol; for Schild plot slope value of fitted linear regression / pKB (Schild plot, abscissa intercept): versus PGE2. The procedure:
as §1
HEK293 cells stably expressing the EP4 receptor, IP receptor, or DP2 receptor conformation sensor were seeded on 15 cm Ø dishes and grown until optical confluence. The cells were washed once with Dulbecco’s PBS (Capricorn Scientific GmbH), without Ca & Mg and Phenol Red (phosphate-buffered saline, PBS). After adding 5 ml PBS to the cells, the dish was treated with liquid nitrogen until the solution was visibly frozen. These dishes were stored at −80°C until the measurements were carried out. On the day of the measurement, the dishes were removed from the freezer and stored at room temperature until the buffer solution had thawed. The material was collected with a cell scraper and centrifuged (5000 rpm/5 min). The supernatant was discarded, the pellet containing the membrane fragments was resuspended with external buffer containing 0.1% BSA and seeded on microplates. […]

No end group written: not given here.

Chain of EP4 receptor conformation sensor (P35408 1-332 limits assumed): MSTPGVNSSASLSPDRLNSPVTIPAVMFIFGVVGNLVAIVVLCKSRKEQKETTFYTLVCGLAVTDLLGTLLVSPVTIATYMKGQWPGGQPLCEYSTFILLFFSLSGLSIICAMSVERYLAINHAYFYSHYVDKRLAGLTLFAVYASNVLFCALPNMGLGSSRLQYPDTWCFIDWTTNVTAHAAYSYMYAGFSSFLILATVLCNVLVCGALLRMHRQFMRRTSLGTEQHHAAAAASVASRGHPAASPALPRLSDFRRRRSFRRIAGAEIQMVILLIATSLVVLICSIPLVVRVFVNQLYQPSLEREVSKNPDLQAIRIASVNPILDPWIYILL

Usually pEC50 stands for −log10 of the EC50, conventionally taken in molar units. Higher therefore signals a small EC50. Take `CCC(=O)O` [propionate, propionic acid]: the results for the pEC50 in experiment [1] (intact cells) and in experiment [1] (saponin-permeabilized cells) were 3.92 and 3.84, respectively.
For `NC[C@H](O)c1ccc(O)c(O)c1` [norepinephrine], the pEC50 in experiment [2] (intact cells) was found to be 6.10; in experiment [2] (saponin-permeabilized cells), 5.63.
As a reminder, the EC50 is the concentration needed to bring the measured effect to its halfway point. As to ASASSLMDKEAVYFAHLDIIW-OH [4-Ala ET-1], the figures for the EC50 at ETB receptor (intact HEK293T cells) and at ETB receptor (saponin-permeabilized cells with 1 µM GTP) were 8.91 nM and 0.617 nM, respectively.
In the case of `CCCCC[C@H](O)/C=C/[C@H]1CCC(=O)[C@@H]1C/C=C\CCCC(=O)O` [11-deoxy PGE2], the negative-log EC50 (pEC50) in experiment [3] (intact HEK293 cells, multiple-cell FRET on plate reader) stood at 7.08. In addition, the results for the “response of about 10 times EC50 normalized to saturating PGE2 concentration” value in experiment [3] (intact cells) and in experiment [3] (saponin-permeabilized cells) were 91% ± 3 and 50% ± 3, respectively.
As to `CCCCc1nn(-c2ccccc2C(F)(F)F)c(=O)n1Cc1ccc(-c2ccccc2S(=O)(=O)NC(=O)c2sccc2C)cc1` [L-161,982], the “Schild plot slope value of fitted linear regression” value in experiment [3] (intact cells) worked out at 1.16; in experiment [3] (membrane fragments) it was 0.69. The “pKB (Schild plot, abscissa intercept)” value worked out at 7.7 in experiment [3] (intact cells) and 6.6 in experiment [3] (membrane fragments).

(Values after paper PMC12687449, “Membrane disruption attenuates agonist potency in prostanoid receptors” (Biochemical Journal, 2025).)
